Here are results for 24 compounds from ChEMBL document CHEMBL3352388, “Active compounds from a diverse library of triazolothiadiazole and triazolothiadiazine scaffolds: synthesis, crystal structure determination, cytotoxicity, cholinesterase inhibitory activity, and binding mode analysis” (Bioorg Med Chem, 2014).

The target of series [1] is T1, Cholinesterase (Homo sapiens, UniProt P06276). Kind of series: Inhibition of human BChE by Ellman's method.
For series [2], the system named is NCI-H157. Kind of series: Cytotoxicity against human NCI-H157 cells by sulforhodamine B assay. The class given is functional, cell-based. Background: Sulforhodamine B stains cellular protein and so reports cell mass.
The test system of series [3] is Vero. Kind of series: Cytotoxicity against African green monkey Vero cells by sulforhodamine B assay. To be noted: chlorocebus sabaeus. The arrangement: concentration or dose not given beside the values. It counts as cell-based.
The target in series [4] is Acetylcholinesterase (Electrophorus electricus) (UniProt O42275). Kind of series: Inhibition of electric eel AChE at 100 uM by Ellman's method. (In general: DTNB colorimetry detects thiols as they appear.)
Sequence of Acetylcholinesterase (Electrophorus electricus) (O42275 24-633 limits assumed): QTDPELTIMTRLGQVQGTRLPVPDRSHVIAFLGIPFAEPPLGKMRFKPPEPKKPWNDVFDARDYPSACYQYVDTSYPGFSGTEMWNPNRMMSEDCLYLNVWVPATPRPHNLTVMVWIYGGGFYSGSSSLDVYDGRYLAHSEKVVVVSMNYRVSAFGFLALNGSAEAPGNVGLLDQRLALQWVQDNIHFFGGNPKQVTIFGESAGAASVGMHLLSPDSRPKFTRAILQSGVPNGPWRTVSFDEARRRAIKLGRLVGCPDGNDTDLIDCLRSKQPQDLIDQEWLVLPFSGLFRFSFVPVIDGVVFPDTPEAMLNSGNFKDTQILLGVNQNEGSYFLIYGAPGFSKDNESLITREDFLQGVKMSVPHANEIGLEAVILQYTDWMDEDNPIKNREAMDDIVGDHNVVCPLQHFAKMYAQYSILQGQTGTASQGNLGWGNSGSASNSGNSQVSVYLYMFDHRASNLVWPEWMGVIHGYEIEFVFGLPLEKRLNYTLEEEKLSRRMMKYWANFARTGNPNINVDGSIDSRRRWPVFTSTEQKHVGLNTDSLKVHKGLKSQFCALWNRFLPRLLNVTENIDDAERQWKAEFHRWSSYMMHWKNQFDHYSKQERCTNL
The target of series [5] is Acetylcholinesterase (Electrophorus electricus, UniProt O42275). Kind of series: Inhibition of electric eel AChE by Ellman's method.
Sequence of Acetylcholinesterase (O42275 whole entry): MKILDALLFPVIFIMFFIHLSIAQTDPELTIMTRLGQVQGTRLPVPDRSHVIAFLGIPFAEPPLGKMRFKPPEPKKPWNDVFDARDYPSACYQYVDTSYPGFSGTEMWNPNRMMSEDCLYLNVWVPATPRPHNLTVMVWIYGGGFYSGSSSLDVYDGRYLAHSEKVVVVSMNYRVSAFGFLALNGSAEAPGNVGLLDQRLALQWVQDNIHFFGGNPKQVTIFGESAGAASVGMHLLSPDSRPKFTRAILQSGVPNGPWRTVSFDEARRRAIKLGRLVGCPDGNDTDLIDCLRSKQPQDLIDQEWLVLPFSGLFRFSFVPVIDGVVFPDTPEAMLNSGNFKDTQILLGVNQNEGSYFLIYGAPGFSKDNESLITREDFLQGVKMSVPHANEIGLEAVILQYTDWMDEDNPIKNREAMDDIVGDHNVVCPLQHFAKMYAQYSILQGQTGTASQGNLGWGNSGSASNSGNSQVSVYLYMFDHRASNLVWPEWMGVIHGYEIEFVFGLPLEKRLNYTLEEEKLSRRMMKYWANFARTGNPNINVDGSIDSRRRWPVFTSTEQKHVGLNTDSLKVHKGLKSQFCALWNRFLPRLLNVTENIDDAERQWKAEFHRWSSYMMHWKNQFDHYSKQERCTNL
Series [6] has as its target T1, Cholinesterase. Kind of series: Ratio of neostigmine IC50 to compound IC50 for human BChE.

T1 sequence (P06276 whole entry): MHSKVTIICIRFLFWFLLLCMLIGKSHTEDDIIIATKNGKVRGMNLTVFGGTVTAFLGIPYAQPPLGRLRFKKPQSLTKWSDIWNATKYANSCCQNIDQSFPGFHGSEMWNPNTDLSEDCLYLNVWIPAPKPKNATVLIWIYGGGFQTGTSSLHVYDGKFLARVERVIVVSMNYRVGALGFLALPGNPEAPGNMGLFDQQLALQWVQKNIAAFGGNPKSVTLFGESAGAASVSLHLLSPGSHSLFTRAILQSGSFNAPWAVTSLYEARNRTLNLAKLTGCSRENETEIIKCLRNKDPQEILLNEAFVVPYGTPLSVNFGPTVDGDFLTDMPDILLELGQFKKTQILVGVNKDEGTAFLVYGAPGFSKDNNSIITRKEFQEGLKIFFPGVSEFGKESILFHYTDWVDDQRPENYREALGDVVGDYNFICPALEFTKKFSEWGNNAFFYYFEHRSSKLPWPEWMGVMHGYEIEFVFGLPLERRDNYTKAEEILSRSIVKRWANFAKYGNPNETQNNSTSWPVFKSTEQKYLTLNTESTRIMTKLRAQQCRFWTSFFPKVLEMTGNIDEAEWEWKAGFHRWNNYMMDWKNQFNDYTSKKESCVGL

Regarding `CN(C)C(=O)Oc1cccc([N+](C)(C)C)c1` [NEOSTIGMINE], the IC50 (commonly the concentration that inhibits the measured activity by half) in series [1] came to 16.3 µM.

On to `Fc1ccc(-c2nn3c(-c4cccnc4)nnc3s2)cc1Cl`, for which the IC50 came to 10.3 µM in series [1] and 1.08 µM in series [2]. Further, the Activity in series [3] was determined as 23.6%. For the same compound, the inhibition (usually the change of the read-out against control, counted positive when it falls) in series [4] is 48.4%.

`Cc1ccc(OCc2nn3c(-c4cccnc4)nnc3s2)cc1`: the IC50 in series [1] amounted to 4.76 µM; in series [2], 2.98 µM; in series [5] it was 11.3 µM. Moreover, in series [3], the Activity was determined as 23.8%.

Turning to `Fc1cc(Cl)ccc1-c1nn2c(-c3cccnc3)nnc2s1`, the concentration for half-maximal inhibition (IC50) worked out at 37.4 µM in series [1] and 1.87 µM in series [2]. In series [3], this compound came in with an Activity of 26.7%. The inhibition in series [4] amounted to 36.2%.

In turn, `Fc1ccc(OCc2nn3c(-c4cccnc4)nnc3s2)cc1` came in with a half-inhibitory concentration (IC50) in series [2] of 1.94 µM. The Activity in series [3] was 17.4%.

Regarding `c1cncc(-c2nnc3n2N=C(c2cccc4ccccc24)CS3)c1`, the concentration for half-maximal inhibition (IC50) in series [1] is 15.9 µM; in series [2] it was 5.37 µM. For the same compound, the Activity in series [3] was 23.1%. The compound also gave an inhibition in series [4] of 17.2%.

For `c1cncc(-c2nnc3sc(-c4ccco4)nn23)c1`, the concentration for half-maximal inhibition (IC50) in series [1] stood at 6.03 µM; in series [2] it was 3.16 µM; in series [5], 21.2 µM. This compound also came in with an Activity in series [3] of 23.9%.

With `c1cncc(-c2nnc3sc(-c4ccoc4)nn23)c1`, the 50% inhibitory concentration (IC50) in series [2] was determined as 3.41 µM. The compound further came in with an Activity in series [3] of 28.4%.

For the compound `Clc1ccc(C2=Nn3c(nnc3-c3cccnc3)SC2)cc1`, the half-maximal inhibitory concentration (IC50) was 9.82 µM in series [1], 3.94 µM in series [2] and 15.1 µM in series [5]. In series [3], this compound gave an Activity of 21.1%.

In series [2], `Cc1ccccc1OCc1nn2c(-c3cccnc3)nnc2s1` gave a 50% inhibitory concentration (IC50) of 3.29 µM. Moreover, the Activity in series [3] turned out to be 20.9%.

Turning to `Cc1ccc(C2=Nn3c(nnc3-c3cccnc3)SC2)cc1`, the IC50 was determined as 25.4 µM in series [1] and 3.87 µM in series [2]. In series [3], this compound registered an Activity of 27.3%. The same compound had an inhibition in series [4] of 28.7%.

For the compound `COc1ccc(OCc2nn3c(-c4cccnc4)nnc3s2)cc1`, the figures for the IC50 in series [1] and in series [2] were 55.8 µM and 1.95 µM, respectively. Moreover, in series [3], the Activity is reported as 24.1%. Also, in series [4], the inhibition was 39.5%.

Take `CCOc1ccc(Cc2nn3c(-c4cccnc4)nnc3s2)cc1`: the IC50 in series [1] was 70.7 µM; in series [2], 2.92 µM. The compound further yielded an Activity in series [3] of 22.5%. Besides, the inhibition in series [4] is 38.4%.

With `O=[N+]([O-])c1ccc(C2=Nn3c(nnc3-c3cccnc3)SC2)cc1`, the concentration for half-maximal inhibition (IC50) in series [1] turned out to be 1.09 µM; in series [2], 1.42 µM; in series [5], 18.3 µM. Further, the Ratio IC50 in series [6] stood at 15. In series [3], this compound registered an Activity of 10.7%.

`Clc1ccc(C2=Nn3c(nnc3-c3cccnc3)SC2)cc1Cl`: the IC50 came to 64.8 µM in series [1], 0.96 µM in series [2] and 38.5 µM in series [5]. The same compound registered an Activity in series [3] of 22.2%.

With `c1ccc(-c2ccc(C3=Nn4c(nnc4-c4cccnc4)SC3)cc2)cc1`, the IC50 in series [1] is 18.9 µM; in series [2], 4.32 µM; in series [5], 39.7 µM. Moreover, the Activity in series [3] was determined as 26.1%.

Regarding `Oc1ccccc1OCc1nn2c(-c3cccnc3)nnc2s1`, the IC50 worked out at 3.02 µM in series [1], 3.67 µM in series [2] and 35.5 µM in series [5]. Besides, the Activity in series [3] is 22.7%.

Take `Fc1ccc(C2=Nn3c(nnc3-c3cccnc3)SC2)cc1`: the concentration for half-maximal inhibition (IC50) in series [1] came out at 4.92 µM; in series [2], 1.85 µM. In addition, in series [3], the Activity amounted to 18.4%. Moreover, the inhibition in series [4] amounted to 40.8%.

As to `CC[C@]1(O)C[C@H]2CN(CCc3c([nH]c4ccccc34)[C@@](C(=O)OC)(c3cc4c(cc3OC)N(C=O)[C@H]3[C@@](O)(C(=O)OC)[C@H](OC(C)=O)[C@]5(CC)C=CCN6CC[C@]43[C@@H]65)C2)C1` [VINCRISTINE], half-maximal inhibition in series [2] (IC50) was put at 1.03 µM. Besides, in series [3], the Activity stood at 16.81%.

Take `Cc1occc1-c1nn2c(-c3cccnc3)nnc2s1`: the concentration for half-maximal inhibition (IC50) in series [1] came out at 58.6 µM; in series [2], 2.93 µM; in series [5], 37.7 µM. Further, the Activity in series [3] was 24.3%.

Regarding `Oc1ccc(OCc2nn3c(-c4cccnc4)nnc3s2)cc1`, the IC50 in series [1] amounted to 0.585 µM; in series [2], 3.01 µM; in series [5], 3.09 µM. Besides, the Activity in series [3] stood at 20.4%.

For `Fc1ccc(Cc2nn3c(-c4cccnc4)nnc3s2)cc1`, the IC50 in series [1] turned out to be 79.9 µM; in series [2], 1.65 µM. Moreover, the Activity in series [3] came out at 21.3%. The compound further registered an inhibition in series [4] of 32.3%.

As for `COc1ccc(C2=Nn3c(nnc3-c3cccnc3)SC2)cc1`, the 50% inhibitory concentration (IC50) worked out at 0.781 µM in series [1] and 1.67 µM in series [2]. In series [6], the Ratio IC50 was 23. In addition, the Activity in series [3] is listed as 27.8%. The compound also yielded an inhibition in series [4] of 15.2%.

As to `c1cncc(-c2nnc3sc(-c4ccc[nH]4)nn23)c1`, the IC50 was 13.7 µM in series [1], 5.14 µM in series [2] and 13.7 µM in series [5]. The Activity in series [3] is 19.2%.
